ChEMBL document CHEMBL1201862, “PubChem BioAssay data set” (2004)
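1) Cells in 96-well plates. 2) Compound, 48 h, 5 concentrations. 3) Linear interpolation between surrounding doses. 4) Unreached endpoint = highest concentration. GI50: concentration for 50% inhibition of growth.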 Activity calls are given as the source filed them. Cut-off read from the data, not from the text of the source: active = GI50 up to about 1.1 µM and inactive = higher.

Key:
Assay in all cases: DTP human tumour cell line panel, 48 h
NCI-H23 = tested on: NCI-H23
A549 = tested on: A549
Malme-3M = tested on: Malme-3M
NCI-H460 = tested on: NCI-H460
OVCAR-3 = tested on: OVCAR-3
SR = tested on: SR
786-0 = tested on: 786-0
OVCAR-4 = tested on: OVCAR-4
MOLT-4 = tested on: MOLT-4
RXF 393 = tested on: RXF 393
K562 = tested on: K562
ACHN = tested on: ACHN
SNB-19 = tested on: SNB-19
HCC 2998 = tested on: HCC 2998
KM12 = tested on: KM12
SK-OV-3 = tested on: SK-OV-3
COLO 205 = tested on: COLO 205
HOP-62 = tested on: HOP-62

SMILES | GI50 (NCI-H23) | GI50 (A549) | GI50 (Malme-3M) | GI50 (NCI-H460) | GI50 (OVCAR-3) | GI50 (SR) | GI50 (786-0) | GI50 (OVCAR-4) | GI50 (MOLT-4) | GI50 (RXF 393) | GI50 (K562) | GI50 (ACHN) | GI50 (SNB-19) | GI50 (HCC 2998) | GI50 (KM12) | GI50 (SK-OV-3) | GI50 (COLO 205) | GI50 (HOP-62)
COc1ccc(NC(=O)CC2SC(Nc3ccc(Cl)cc3C)=NC2=O)c([N+](=O)[O-])c1 (centres undefined) | > 100 µM (inactive) | > 100 µM (inactive) | > 100 µM (inactive) | > 100 µM (inactive) | > 100 µM (inactive) | > 100 µM (inactive) | > 100 µM (inactive) | > 100 µM (inactive) | > 100 µM (inactive) | > 100 µM (inactive) | > 100 µM (inactive) | > 100 µM (inactive) | > 100 µM (inactive) | > 100 µM (inactive) | – | – | – | –
c1ccc(CNn2nnc3ccccc32)cc1 | > 100 µM (inactive) | > 100 µM (inactive) | > 100 µM (inactive) | > 100 µM (inactive) | > 100 µM (inactive) | – | > 100 µM (inactive) | > 100 µM (inactive) | > 100 µM (inactive) | > 100 µM (inactive) | > 100 µM (inactive) | > 100 µM (inactive) | > 100 µM (inactive) | > 100 µM (inactive) | > 100 µM (inactive) | > 100 µM (inactive) | > 100 µM (inactive) | > 100 µM (inactive)
O=c1c2c(c1=O)-c1ccccc1CN2 | > 100 µM (inactive) | > 100 µM (inactive) | > 100 µM (inactive) | > 100 µM (inactive) | > 100 µM (inactive) | – | > 100 µM (inactive) | > 100 µM (inactive) | > 100 µM (inactive) | > 100 µM (inactive) | > 100 µM (inactive) | > 100 µM (inactive) | > 100 µM (inactive) | > 100 µM (inactive) | > 100 µM (inactive) | > 100 µM (inactive) | > 100 µM (inactive) | > 100 µM (inactive)
CC(C)OP(=O)(OC(C)C)/C(=N/Nc1ccccc1[N+](=O)[O-])NCCN/C(=N\Nc1ccccc1[N+](=O)[O-])P(=O)(OC(C)C)OC(C)C | 14.5 µM (inactive) | 29.4 µM (inactive) | 23.1 µM (inactive) | > 10 µM (inactive) | 42.7 µM (inactive) | – | 33 µM (inactive) | 48.1 µM (inactive) | 43.2 µM (inactive) | – | 35.3 µM (inactive) | 30.1 µM (inactive) | 38 µM (inactive) | 39.4 µM (inactive) | 40.3 µM (inactive) | – | 25.2 µM (inactive) | 52.8 µM (inactive)
COc1ccc([C@@H]2CC(=O)NCCCNCCCCNCCCN2)cc1 | > 100 µM (inactive) | > 100 µM (inactive) | > 100 µM (inactive) | > 100 µM (inactive) | – | > 100 µM (inactive) | > 100 µM (inactive) | > 100 µM (inactive) | > 100 µM (inactive) | > 100 µM (inactive) | > 100 µM (inactive) | > 100 µM (inactive) | > 100 µM (inactive) | > 100 µM (inactive) | > 100 µM (inactive) | > 100 µM (inactive) | > 100 µM (inactive) | > 100 µM (inactive)
[O-][n+]1c2c([n+]([O-])c3ccccc31)CCCCCCCCCC2 | > 100 µM (inactive) | > 100 µM (inactive) | > 100 µM (inactive) | – | > 100 µM (inactive) | 63.4 µM (inactive) | > 100 µM (inactive) | – | 45.5 µM (inactive) | – | 69.7 µM (inactive) | > 100 µM (inactive) | > 100 µM (inactive) | – | > 100 µM (inactive) | > 100 µM (inactive) | – | –
O=P1(Oc2ccccc2)C(c2ccccc2)C(c2ccccc2)=NN1c1ccccc1 (centres undefined) | 22.8 µM (inactive) | 29.2 µM (inactive) | 43.7 µM (inactive) | 24.2 µM (inactive) | 19.7 µM (inactive) | – | 33.7 µM (inactive) | 31.6 µM (inactive) | 22 µM (inactive) | 24.2 µM (inactive) | 24.8 µM (inactive) | 24.5 µM (inactive) | 34.9 µM (inactive) | 28.8 µM (inactive) | 25.8 µM (inactive) | 22.6 µM (inactive) | 18.9 µM (inactive) | 24.6 µM (inactive)
O=C(O)c1ccc(C2C3C=CC(C3)C2[N+](=O)[O-])cc1 (centres undefined) | > 100 µM (inactive) | > 100 µM (inactive) | > 100 µM (inactive) | > 100 µM (inactive) | > 100 µM (inactive) | – | > 100 µM (inactive) | – | > 100 µM (inactive) | > 100 µM (inactive) | > 100 µM (inactive) | – | > 100 µM (inactive) | > 100 µM (inactive) | > 100 µM (inactive) | > 100 µM (inactive) | > 100 µM (inactive) | > 100 µM (inactive)
C=C(NC(=O)C(=C)NC(=O)c1csc(C2=NC3c4csc(n4)C4NC(=O)c5csc(n5)C(C(C)(O)C(C)O)NC(=O)C5CSC(=N5)/C(=C/C)NC(=O)C(C(C)O)NC(=O)c5csc(n5)C3(CC2)NC(=O)C(C)NC(=O)C(=C)NC(=O)C(C)NC(=O)C(C(C)CC)NC2C=Cc3c(C(C)O)cc(nc3C2O)C(=O)OC4C)n1)C(N)=O (centres undefined) | 2.79 µM (inactive) | 4.57 µM (inactive) | 1.63 µM (inactive) | 1.72 µM (inactive) | 1.75 µM (inactive) | 0.302 µM (active) | 1.54 µM (inactive) | 19.9 µM (inactive) | – | – | 0.726 µM (active) | 2.32 µM (inactive) | 2.69 µM (inactive) | 6.67 µM (inactive) | 1.93 µM (inactive) | 15 µM (inactive) | – | 9.35 µM (inactive)
